Holding throughout (assay type): cell-based
Assay [1] has as its system p-Akt 1/2/3 (Ser473) in MCF-7 cells. Description: AlphaLISA Ultra pAKT assay. The settings on record: Homo sapiens, 1.5 h; MCF7 cells, 90 min. The essentials: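 MCF-7 cells (16,000˜20,000 per well in 36 μL medium) were seeded in Corning 3701 plates for 20˜24 hour, refreshed with new medium for 90 minutes, then given 12 μL of 4× compound (0.5% final DMSO). Cells were lysed with 2× lysis buffer, and lysate was analyzed by AlphaLISA Ultra pAKT using acceptor and donor beads, read on an EnSpire reader.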

Assay [2] has as its system p-p70 S6 Kinase (Thr389) in MCF-7 cells. Nature of the assay: AlphaLISA Ultra pS6K1 assay. Conditions: Homo sapiens, 1.5 h; MCF7 cells, 90 min. The method in brief:
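MCF-7 cells seeded 20–24 h, given fresh medium 2 h, then treated with compounds 90 min (0.5% DMSO final). Cells lysed, lysates frozen at −80 °C, then Thr389-phosphorylated S6K1 detected by AlphaLISA Ultra with acceptor beads 2 h, then donor beads 2 h.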
(In general: Bead proximity is the source of the signal in Alpha formats.)

The next assay concerns mTORC1 over mTORC2. Nature of the assay: mTORC1 over mTORC2 selectivity by comparing pS6K1 and pAKT IC50. Conditions: by comparing pS6K1 and pAKT IC50, 90 min. The method in brief: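 MCF-7 cells were treated with compounds (0.5% final DMSO) for 90 minutes in one protocol and 2 hours in the other, then lysed. Phospho-signal in lysates was read by bead-based donor/acceptor proximity assay. pS6K1 and pAKT IC50 values were compared to judge mTORC1 over mTORC2 selectivity, at 90 min and at 24 hrs.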

Turning to `CO[C@@H]1C[C@H](C[C@@H](C)[C@@H]2CC(=O)[C@H](C)/C=C(\C)[C@@H](O)[C@@H](OC)C(=O)[C@H](C)C[C@H](C)/C=C/C=C/C=C(\C)[C@H](OCCOC3COC3)C[C@@H]3CC[C@@H](C)[C@@](O)(O3)C(=O)C(=O)N3CCCC[C@H]3C(=O)O2)CC[C@H]1OP(C)(C)=O` [I-77, (1R,9S,12S,15R,16E,18R,19R,21R,23S,24E,26E,28E,30R,32S,35R)-12-[(1R)-2-[(1S,3R,4R)-4-dimethylphosphoryloxy-3-methoxy-cyclohexyl]-1-methyl-ethyl]-1,18-dihydroxy-19-methoxy-15,17,21,23,29,35-hexamethyl-30-[2-(oxetan-3-yloxy)ethoxy]-11,36-dioxa-4-azatricyclo[30.3.1.0^4,9]hexatriaconta-16,24,26,28-tetraene-2,3,10,14,20-pentone], the half-maximal inhibitory concentration (IC50) (in general, the concentration at which inhibition is half-maximal) in assay [1] was not below 1000 nM; in assay [2], 10 to 100 nM. Moreover, the “mTORC1 selective @ 90 min” value with mTORC1 over mTORC2 is recorded as “Yes”.

Turning to `CO[C@@H]1C[C@H](C[C@@H](C)[C@@H]2CC(=O)[C@H](C)/C=C(\C)[C@@H](O)[C@@H](OC)C(=O)[C@H](C)C[C@H](C)/C=C/C=C/C=C(\C)[C@H](OCC3COCCO3)C[C@@H]3CC[C@@H](C)[C@@](O)(O3)C(=O)C(=O)N3CCCC[C@H]3C(=O)O2)CC[C@H]1OC(=O)NCCN1CCOCC1` (stereo partly drawn) [I-102, [(42S,44R,46R)-4-[(2R)-2-[(28E,30E,32E,33E,38R,39S,40R,41R,43S,45S,47R,48S,50R,51R,61R)-47-(1,4-dioxan-2-ylmethoxy)-50,61-dihydroxy-51-methoxy-38,39,40,41,52,53-hexamethyl-54,55,56,57,58-pentaoxo-76,77-dioxa-64-azatricyclohexatriaconta-28,30,32(52),33(53)-tetraen-48-yl]propyl]-46-methoxy-44-cyclohexyl] N-(2-morpholinoethyl)carbamate], the values for the 50% inhibitory concentration (IC50) in assay [1] and in assay [2] were not below 1000 nM and less than 1 nM, respectively. For the same compound, the “mTORC1 selective @ 90 min” value in the assay on mTORC1 over mTORC2 is recorded as “Yes”.

Consider `CNCCOCCOC1C[C@@H]2CC[C@@H](C)[C@@](O)(O2)C(=O)C(=O)N2CCCC[C@H]2C(=O)O[C@H]([C@H](C)C[C@@H]2CC[C@@H](OC)[C@H](OC)C2)CC(=O)[C@H](C)/C=C(\C)[C@@H](OC)[C@@H](OC)C(=O)[C@H](C)C[C@H](C)/C=C/C=C/C=C/1C` (stereo partly drawn) [I-90, (24E,26E,28E,29E,35R,36S,37R,38R,40S,42S,45S,46R,47R,56R)-45-[(1R)-2-[(1S,3R,4R)-3,4-dimethoxycyclohexyl]-1-methyl-ethyl]-56-hydroxy-46,47-dimethoxy-35,36,37,38,48,49-hexamethyl-44-[2-[2-(methylamino)ethoxy]ethoxy]-65,66-dioxa-58-azatricyclohexatriaconta-24,26,28(48),29(49)-tetraene-50,51,52,53,54-pentone], for which the IC50 is not below 1000 nM in assay [1] and 10 to 100 nM in assay [2]. Besides, in the assay on mTORC1 over mTORC2, the “mTORC1 selective @ 90 min” value was “Yes”.

For `COCCS(=O)(=O)CCO[C@@H]1C[C@@H]2CC[C@@H](C)[C@@](O)(O2)C(=O)C(=O)N2CCCC[C@H]2C(=O)O[C@H]([C@H](C)C[C@@H]2CC[C@@H](OC)[C@H](OC)C2)CC(=O)[C@H](C)/C=C(\C)[C@@H](OC)[C@@H](OC)C(=O)[C@H](C)C[C@H](C)/C=C/C=C/C=C/1C` [I-42, (24E,26E,28E,29E,35R,36S,37R,38R,40S,42S,44R,45S,46R,47R,56R)-45-[(1R)-2-[(1S,3R,4R)-3,4-dimethoxycyclohexyl]-1-methyl-ethyl]-56-hydroxy-46,47-dimethoxy-44-[2-(2-methoxyethylsulfonyl)ethoxy]-35,36,37,38,48,49-hexamethyl-66,67-dioxa-57-azatricyclohexatriaconta-24,26,28(48),29(49)-tetraene-50,51,52,53,54-pentone], the values for the half-maximal inhibitory concentration (IC50) in assay [1] and in assay [2] were not below 1000 nM and 10 to 100 nM, respectively. In the assay on mTORC1 over mTORC2, the “mTORC1 selective @ 90 min” value is on record as “Yes”.

Regarding `COCCO[C@@H]1CC[C@@H](C[C@@H](C)[C@@H]2CC(=O)[C@H](C)/C=C(\C)[C@@H](O)[C@@H](OC)C(=O)[C@H](C)C[C@H](C)/C=C/C=C/C=C(\C)C(OC[C@H]3COCCO3)C[C@@H]3CC[C@@H](C)[C@@](O)(O3)C(=O)C(=O)N3CCCC[C@H]3C(=O)O2)C[C@H]1OC` (stereo partly drawn) [I-79, (1R,9S,12S,15R,16E,18R,19R,21R,23S,24E,26E,28E,32S,35R)-30-[[(2R)-1,4-dioxan-2-yl]methoxy]-1,18-dihydroxy-19-methoxy-12-[(1R)-2-[(1S,3R,4R)-3-methoxy-4-(2-methoxyethoxy)cyclohexyl]-1-methyl-ethyl]-15,17,21,23,29,35-hexamethyl-11,36-dioxa-4-azatricyclo[30.3.1.0^4,9]hexatriaconta-16,24,26,28-tetraene-2,3,10,14,20-pentone], the results for the IC50 in assay [1] and in assay [2] were not below 1000 nM and 1 to 10 nM, respectively. Moreover, the “mTORC1 selective @ 90 min” value in the assay with mTORC1 over mTORC2 is recorded as “Yes”.

For the compound `COCCO[C@@H]1CC[C@@H](C[C@@H](C)[C@@H]2CC(=O)[C@H](C)/C=C(\C)[C@@H](OC)[C@@H](OC)C(=O)[C@H](C)C[C@H](C)/C=C/C=C/C=C(\C)[C@H](OCCOC3COC3)C[C@@H]3CC[C@@H](C)[C@@](O)(O3)C(=O)C(=O)N3CCCC[C@H]3C(=O)O2)C[C@H]1OC` [I-82, (1R,9S,12S,15R,16E,18R,19R,21R,23S,24E,26E,28E,30R,32S,35R)-1-hydroxy-18,19-dimethoxy-12-[(1R)-2-[(1S,3R,4R)-3-methoxy-4-(2-methoxyethoxy)cyclohexyl]-1-methyl-ethyl]-15,17,21,23,29,35-hexamethyl-30-[2-(oxetan-3-yloxy)ethoxy]-11,36-dioxa-4-azatricyclo[30.3.1.0^4,9]hexatriaconta-16,24,26,28-tetraene-2,3,10,14,20-pentone], the half-maximal inhibitory concentration (IC50) in assay [1] is not below 1000 nM; in assay [2], 10 to 100 nM. In addition, the “mTORC1 selective @ 90 min” value with mTORC1 over mTORC2 is recorded as “Yes”.

`CO[C@@H]1/C(C)=C/[C@@H](C)C(=O)C[C@@H]([C@H](C)C[C@@H]2CC[C@@H](OC)[C@H](OC)C2)OC(=O)[C@@H]2CCCCN2C(=O)C(=O)[C@]2(O)O[C@@H](CC[C@H]2C)C[C@@H](OCC2COCCO2)/C(C)=C/C=C/C=C/[C@@H](C)C[C@@H](C)C(=O)[C@@H]1OC` (stereo partly drawn) [I-39, (26E,28E,30E,31E,34R,35S,36R,37R,39S,41S,43R,44S,46R,47R,56R)-44-[(1R)-2-[(1S,3R,4R)-3,4-dimethoxycyclohexyl]-1-methyl-ethyl]-43-(1,4-dioxan-2-ylmethoxy)-56-hydroxy-46,47-dimethoxy-34,35,36,37,48,49-hexamethyl-66,67-dioxa-57-azatricyclohexatriaconta-26,28,30(48),31(49)-tetraene-50,51,52,53,54-pentone]: the IC50 in assay [1] was not below 1000 nM; in assay [2], 100 to 1000 nM. Moreover, the “mTORC1 selective @ 90 min” value in the assay on mTORC1 over mTORC2 is “Yes”.

As for `CO[C@@H]1/C(C)=C/[C@@H](C)C(=O)C[C@@H]([C@H](C)C[C@@H]2CC[C@@H](OP(C)(C)=O)[C@H](OC)C2)OC(=O)[C@@H]2CCCCN2C(=O)C(=O)[C@]2(O)O[C@@H](CC[C@H]2C)C[C@H](OCC2COCCO2)/C(C)=C/C=C/C=C/[C@@H](C)C[C@@H](C)C(=O)[C@@H]1OC` (stereo partly drawn) [I-25, (27E,29E,31E,32E,35R,36S,37R,38R,40S,42S,44S,45S,47R,48R,57R)-45-[(1R)-2-[(1S,3R,4R)-4-dimethylphosphoryloxy-3-methoxy-cyclohexyl]-1-methyl-ethyl]-44-(1,4-dioxan-2-ylmethoxy)-57-hydroxy-47,48-dimethoxy-35,36,37,38,49,50-hexamethyl-68,69-dioxa-58-azatricyclohexatriaconta-27,29,31(49),32(50)-tetraene-51,52,53,54,55-pentone], the IC50 in assay [1] is not below 1000 nM; in assay [2], 10 to 100 nM. Also, the “mTORC1 selective @ 90 min” value in the assay with mTORC1 over mTORC2 is “Yes”.

As for `CO[C@@H]1C[C@H](C[C@@H](C)[C@@H]2CC(=O)[C@H](C)/C=C(\C)[C@@H](O)[C@@H](OC)C(=O)[C@H](C)C[C@H](C)/C=C/C=C/C=C(\C)C(OCCOC3COC3)C[C@@H]3CC[C@@H](C)[C@@](O)(O3)C(=O)C(=O)N3CCCC[C@H]3C(=O)O2)CC[C@H]1OCCCN1CC2(COC2)C1` (stereo partly drawn) [I-91, (27E,29E,31E,32E,39R,40S,41R,42R,44S,46S,49S,51R,52R,62R)-51,62-dihydroxy-52-methoxy-49-[(1R)-2-[(1S,3R,4R)-3-methoxy-4-[3-(2-oxa-6-azaspiro[3.3]heptan-6-yl)propoxy]cyclohexyl]-1-methyl-ethyl]-39,40,41,42,53,54-hexamethyl-48-[2-(oxetan-3-yloxy)ethoxy]-74,75-dioxa-63-azatricyclohexatriaconta-27,29,31(53),32(54)-tetraene-55,56,57,58,59-pentone], the IC50 is not below 1000 nM in assay [1] and 1 to 10 nM in assay [2]. Further, the “mTORC1 selective @ 90 min” value in the assay with mTORC1 over mTORC2 was “Yes”.

As to `CO[C@@H]1C[C@H](C[C@@H](C)[C@@H]2CC(=O)[C@H](C)/C=C(\C)[C@@H](O)[C@@H](OC)C(=O)[C@H](C)C[C@H](C)/C=C/C=C/C=C(\C)[C@H](OCCOC3COC3)C[C@@H]3CC[C@@H](C)[C@@](O)(O3)C(=O)C(=O)N3CCCC[C@H]3C(=O)O2)CC[C@H]1OC(=O)N(C)CCN1CCOCC1` [I-17, [(43S,45R,47R)-4-[(2R)-2-[(28E,30E,32E,33E,39R,40S,41R,42R,44S,46S,48R,49S,51R,52R,62R)-51,62-dihydroxy-52-methoxy-39,40,41,42,53,54-hexamethyl-48-[2-(oxetan-3-yloxy)ethoxy]-55,56,57,58,59-pentaoxo-76,77-dioxa-64-azatricyclohexatriaconta-28,30,32(53),33(54)-tetraen-49-yl]propyl]-47-methoxy-45-cyclohexyl] N-methyl-N-(2-morpholinoethyl)carbamate], the figures for the IC50 in assay [1] and in assay [2] were not below 1000 nM and 1 to 10 nM, respectively. Besides, in the assay on mTORC1 over mTORC2, the “mTORC1 selective @ 90 min” value is reported as “Yes”.

(Values after patent publication US20220267352A1, “RAPAMYCIN ANALOGS AND USES THEREOF” (Anakuria Therapeutics, Inc., priority 2021, published 2022).)
